Consider 29 compounds from patent US20140163026A1, “8-ETHYL-6-(ARYL)PYRIDO[2,3-D]PYRIMIDIN-7(8H)-ONES FOR THE TREATMENT OF NERVOUS SYSTEM DISORDERS AND CANCER” (Afraxis Holdings, Inc., priority 2011, published 2014).

In general, IC50 refers to the concentration needed to halve the response being measured. Lower therefore signals greater potency in that assay.

Each structure is given as a SMILES string. A value given as a limit tells only on which side of the number the result lay.

Holding throughout (format): biochemical
In experiment [1] the target is PAK4 (Homo sapiens, UniProt O96013). The experiment can be described thus: In vitro PAK inhibition assay (SelectScreen, Ser/Thr 20 peptide). An outline of the steps:
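FRET-based Ser/Thr 20 peptide phosphorylation: 0.1-0.75 ng PAK4, 2 μM peptide in 50 mM HEPES pH 7.5, 10 mM MgCl2, 1 mM EGTA, 0.01% BRIJ-35, 1% DMSO; 60 min at room temperature, then 60 min protease development. 10-point 3-fold titrations; IC50 from sigmoidal fit.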

Experiment [2] addresses PAK3 (Homo sapiens, UniProt O75914). The description is as above. The method in brief:
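PAK3 phosphorylation of Ser/Thr 20 peptide in 50 mM HEPES pH 7.5, 0.01% BRIJ-35, 10 mM MgCl2, 1 mM EGTA, 1% DMSO final; 60 min at room temperature, then 60 min development reaction with fluorescence read-out. 10-point 3-fold titrations; percent phosphorylation from 0% and 100% phosphopeptide controls.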

In experiment [3] the target is PAK1 (Homo sapiens, UniProt Q13153). The experiment can be described thus: In vitro PAK inhibition assay (SelectScreen, Ser/Thr 19 peptide). The method in brief:
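Kinase reaction ran in 50 mM HEPES pH 7.5, 0.01% BRIJ-35, 10 mM MgCl2, 1 mM EGTA with Ser/Thr 19 peptide for 60 min at room temperature, followed by 60 min protease development. Fluorescence gave percent phosphorylation. Compounds were tested as 10-point, 3-fold titrations in 1% DMSO final.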

Experiment [4] deals with PAK2 (PAK65) (Homo sapiens, UniProt Q13177). Kind of experiment: In vitro PAK inhibition assay (SelectScreen, Ser/Thr 20 peptide). The method in brief: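 FRET-based peptide cleavage assay: 0.29-6 ng PAK2 and 2 μM Ser/Thr 20 peptide in 50 mM HEPES pH 7.5, 10 mM MgCl2, 1 mM EGTA, 0.01% BRIJ-35, 1% DMSO final. Kinase reaction 60 min at room temperature, then 60 min development; 10-point 3-fold titrations, percent phosphorylation from fluorescence.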
PAK2 (PAK65), sequence (Q13177 whole entry): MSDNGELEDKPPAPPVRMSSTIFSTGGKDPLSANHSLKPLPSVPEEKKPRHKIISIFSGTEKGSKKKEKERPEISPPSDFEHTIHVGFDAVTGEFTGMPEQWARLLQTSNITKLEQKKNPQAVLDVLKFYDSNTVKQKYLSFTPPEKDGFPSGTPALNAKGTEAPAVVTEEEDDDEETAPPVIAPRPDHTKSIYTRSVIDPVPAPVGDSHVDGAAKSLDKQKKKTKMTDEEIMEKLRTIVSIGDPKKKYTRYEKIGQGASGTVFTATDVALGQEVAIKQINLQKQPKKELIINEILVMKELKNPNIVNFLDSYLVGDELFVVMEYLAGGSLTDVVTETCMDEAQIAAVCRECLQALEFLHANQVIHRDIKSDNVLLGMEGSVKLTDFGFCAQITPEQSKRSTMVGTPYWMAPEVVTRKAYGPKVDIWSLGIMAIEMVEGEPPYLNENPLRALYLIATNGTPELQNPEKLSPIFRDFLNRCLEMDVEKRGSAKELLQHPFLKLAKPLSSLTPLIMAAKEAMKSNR

PAK1, sequence (Q13153 whole entry): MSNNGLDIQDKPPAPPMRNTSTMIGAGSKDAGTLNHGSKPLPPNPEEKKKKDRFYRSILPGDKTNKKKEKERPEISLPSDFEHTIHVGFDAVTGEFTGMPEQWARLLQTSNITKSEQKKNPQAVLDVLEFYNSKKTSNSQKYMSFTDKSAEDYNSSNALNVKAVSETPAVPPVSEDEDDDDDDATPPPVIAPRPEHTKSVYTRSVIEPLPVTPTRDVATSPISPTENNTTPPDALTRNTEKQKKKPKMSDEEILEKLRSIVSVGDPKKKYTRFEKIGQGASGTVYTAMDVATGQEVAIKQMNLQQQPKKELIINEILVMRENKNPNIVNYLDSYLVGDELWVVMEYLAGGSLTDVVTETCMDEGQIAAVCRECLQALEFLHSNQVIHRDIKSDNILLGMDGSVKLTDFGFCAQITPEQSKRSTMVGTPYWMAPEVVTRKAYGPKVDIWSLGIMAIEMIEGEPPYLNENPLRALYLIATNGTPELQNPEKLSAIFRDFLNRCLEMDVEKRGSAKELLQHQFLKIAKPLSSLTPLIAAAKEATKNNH
PAK3, sequence (O75914 whole entry): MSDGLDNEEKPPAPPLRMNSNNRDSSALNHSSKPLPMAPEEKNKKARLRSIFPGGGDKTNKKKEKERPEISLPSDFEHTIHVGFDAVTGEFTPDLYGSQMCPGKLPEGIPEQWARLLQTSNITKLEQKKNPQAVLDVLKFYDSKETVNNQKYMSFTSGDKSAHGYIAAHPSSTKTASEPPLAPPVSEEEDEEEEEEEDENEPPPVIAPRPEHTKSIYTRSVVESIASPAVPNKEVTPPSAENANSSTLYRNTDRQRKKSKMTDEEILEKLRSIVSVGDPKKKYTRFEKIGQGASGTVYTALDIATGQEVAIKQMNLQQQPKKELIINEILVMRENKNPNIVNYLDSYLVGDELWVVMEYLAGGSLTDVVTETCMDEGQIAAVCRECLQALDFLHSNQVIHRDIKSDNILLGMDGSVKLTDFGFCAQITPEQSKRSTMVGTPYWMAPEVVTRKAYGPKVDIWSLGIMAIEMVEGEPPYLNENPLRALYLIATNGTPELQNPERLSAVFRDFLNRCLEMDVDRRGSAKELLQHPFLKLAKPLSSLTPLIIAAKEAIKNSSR
PAK4, sequence (O96013 whole entry): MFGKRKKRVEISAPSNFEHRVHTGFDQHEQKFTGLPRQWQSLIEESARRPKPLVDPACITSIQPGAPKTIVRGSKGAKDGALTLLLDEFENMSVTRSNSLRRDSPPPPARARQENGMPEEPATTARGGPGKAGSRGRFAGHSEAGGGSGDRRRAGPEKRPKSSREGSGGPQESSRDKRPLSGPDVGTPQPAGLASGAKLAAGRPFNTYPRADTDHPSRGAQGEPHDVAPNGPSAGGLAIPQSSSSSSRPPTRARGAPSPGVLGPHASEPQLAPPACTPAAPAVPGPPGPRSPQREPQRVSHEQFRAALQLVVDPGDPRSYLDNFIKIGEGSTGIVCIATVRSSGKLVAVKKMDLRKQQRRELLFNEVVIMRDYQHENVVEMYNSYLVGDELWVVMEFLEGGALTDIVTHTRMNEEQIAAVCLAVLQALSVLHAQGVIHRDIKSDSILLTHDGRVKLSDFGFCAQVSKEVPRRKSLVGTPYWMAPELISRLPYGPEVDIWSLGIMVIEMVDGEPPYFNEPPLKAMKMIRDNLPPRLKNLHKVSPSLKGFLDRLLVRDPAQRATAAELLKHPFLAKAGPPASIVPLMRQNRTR

`CCn1c(=O)c(-c2ccc(-c3ccnn3C)cc2)cc2cnc(Nc3ccc(N4CCN(C)CC4)cc3)nc21`: the IC50 was no less than 5000 nM in experiment [1], 500 to 5000 nM in experiment [2], 50 to 500 nM in experiment [3] and 500 to 5000 nM in experiment [4].

For `CCn1c(=O)c(-c2ccc(-c3ccsc3)cc2)cc2cnc(Nc3ccc(N4CCN(C)CC4)cc3)nc21`, the IC50 in experiment [1] was no less than 5000 nM; in experiment [2], 50 to 500 nM; in experiment [3], 50 to 500 nM; in experiment [4] it was 500 to 5000 nM.

Regarding `Cc1nc(-c2cc(Cl)c(-c3cc4cnc(Nc5ccc(C6CCN(C)CC6)cc5)nc4n(C)c3=O)cc2F)no1`, the IC50 in experiment [1] is no less than 5000 nM; in experiment [2], less than 50 nM; in experiment [3], less than 50 nM; in experiment [4], less than 50 nM.

With `CCn1c(=O)c(-c2ccc(-c3cnc(C)s3)cn2)cc2cnc(Nc3ccc(C4CCN(C)CC4)cc3)nc21`, the IC50 in experiment [1] was no less than 5000 nM; in experiment [2], greater than 5000 nM; in experiment [3] it was 500 to 5000 nM; in experiment [4], greater than 5000 nM.

Turning to `CCn1c(=O)c(-c2ccc(-c3cnc(C)s3)nc2)cc2cnc(Nc3ccc(C4CCN(C)CC4)cc3)nc21`, the IC50 in experiment [1] was no less than 5000 nM; in experiment [2], 500 to 5000 nM; in experiment [3] it was 500 to 5000 nM; in experiment [4] it was 500 to 5000 nM.

Turning to `CN1CCC(c2ccc(Nc3ncc4cc(-c5cc(-c6cccnc6)ccc5Cl)c(=O)n(C)c4n3)cc2)CC1`, the IC50 is no less than 5000 nM in experiment [1], 500 to 5000 nM in experiment [2], 50 to 500 nM in experiment [3] and 500 to 5000 nM in experiment [4].

For the compound `CN(C)CCc1ccc(Nc2ncc3cc(-c4ccc(-c5cccnc5N(C)C)cc4Cl)c(=O)n(C)c3n2)cc1`, the IC50 in experiment [1] is no less than 5000 nM; in experiment [2], 500 to 5000 nM; in experiment [3] it was 50 to 500 nM; in experiment [4], 500 to 5000 nM.

Take `CCc1cc(-c2ccc(-c3cc4cnc(Nc5ccc(C6CCN(C)CC6)cc5)nc4n(CC)c3=O)c(Cl)c2)ncn1`: the IC50 in experiment [1] is no less than 5000 nM; in experiment [2], 50 to 500 nM; in experiment [3] it was less than 50 nM; in experiment [4], less than 50 nM.

For `CCn1c(=O)c(-c2ccc(-c3noc(C)n3)cn2)cc2cnc(Nc3ccc(C4CCN(C)CC4)cc3)nc21`, the IC50 was no less than 5000 nM in experiment [1], greater than 5000 nM in experiment [2], 500 to 5000 nM in experiment [3] and greater than 5000 nM in experiment [4].

Regarding `Cc1nccnc1-c1ccc(-c2cc3cnc(Nc4ccc(C5CCN(C)CC5)cc4)nc3n(C)c2=O)c(Cl)c1`, the IC50 is no less than 5000 nM in experiment [1], less than 50 nM in experiment [2], less than 50 nM in experiment [3] and less than 50 nM in experiment [4].

As for `CCn1c(=O)c(-c2cc(C)c(-c3cccnc3)cc2Cl)cc2cnc(Nc3ccc(C4CCN(C)CC4)cc3)nc21`, the IC50 is 50 to 500 nM in experiment [1], less than 50 nM in experiment [2], less than 50 nM in experiment [3] and less than 50 nM in experiment [4].

With `CCn1c(=O)c(-c2ccc(-c3nccnc3C)cc2Cl)cc2cnc(Nc3ccccc3)nc21`, the IC50 in experiment [1] is no less than 5000 nM; in experiment [2], 50 to 500 nM; in experiment [3], 50 to 500 nM; in experiment [4], 50 to 500 nM.

For the compound `CCn1c(=O)c(-c2cc(C)c(-c3cccnc3C)cc2Cl)cc2cnc(Nc3ccc(C4CCN(C)CC4)cc3)nc21`, the IC50 in experiment [1] was no less than 5000 nM; in experiment [2] it was 50 to 500 nM; in experiment [3], less than 50 nM; in experiment [4] it was less than 50 nM.

Turning to `CC(=O)Nc1cc(-c2cc3cnc(Nc4ccc(CCN(C)C)cc4)nc3n(C)c2=O)c(Cl)cc1-c1cccnc1`, the IC50 in experiment [1] is no less than 5000 nM; in experiment [2] it was 50 to 500 nM; in experiment [3] it was 50 to 500 nM; in experiment [4], 50 to 500 nM.

Take `Cc1cnc(-c2ccc(-c3cc4cnc(Nc5ccc(C6CCN(C)CC6)cc5)nc4n(C)c3=O)c(C)c2)s1`: the IC50 was 500 to 5000 nM in experiment [1], 50 to 500 nM in experiment [2], less than 50 nM in experiment [3] and less than 50 nM in experiment [4].

Consider `Cc1nc(-c2ccc(-c3cc4cnc(Nc5ccc(C6CCN(C)CC6)cc5)nc4n(C)c3=O)c(C)c2)no1`, for which the IC50 is no less than 5000 nM in experiment [1], less than 50 nM in experiment [2], less than 50 nM in experiment [3] and less than 50 nM in experiment [4].

For the compound `CCn1c(=O)c(-c2ccc(-c3nccnc3C)cc2C)cc2cnc(Nc3ccc(C4CCN(C)CC4)cc3)nc21`, the IC50 in experiment [1] was no less than 5000 nM; in experiment [2], less than 50 nM; in experiment [3], less than 50 nM; in experiment [4], less than 50 nM.

For the compound `CC(=O)Nc1ncccc1-c1ccc(Cl)c(-c2cc3cnc(Nc4ccc(C5CCN(C)CC5)cc4)nc3n(C)c2=O)c1`, the IC50 was no less than 5000 nM in experiment [1], 500 to 5000 nM in experiment [2], 50 to 500 nM in experiment [3] and 50 to 500 nM in experiment [4].

On to `CCn1c(=O)c(-c2ccc(-c3ncc(C)s3)cc2C)cc2cnc(Nc3ccc(C4CCN(C)CC4)cc3)nc21`, for which the IC50 in experiment [1] was 500 to 5000 nM; in experiment [2] it was 50 to 500 nM; in experiment [3], less than 50 nM; in experiment [4], less than 50 nM.

As for `CN1CCC(c2ccc(Nc3ncc4cc(-c5cc(-c6cccnc6N(C)C)ccc5Cl)c(=O)n(C)c4n3)cc2)CC1`, the IC50 in experiment [1] was no less than 5000 nM; in experiment [2], greater than 5000 nM; in experiment [3] it was 500 to 5000 nM; in experiment [4], 500 to 5000 nM.

On to `CN1CCC(c2ccc(Nc3ncc4cc(-c5cc(-c6cnccn6)ccc5Cl)c(=O)n(C)c4n3)cc2)CC1`, for which the IC50 in experiment [1] was no less than 5000 nM; in experiment [2] it was 50 to 500 nM; in experiment [3] it was 50 to 500 nM; in experiment [4] it was 500 to 5000 nM.

`Cc1ccc(-c2cccnc2)cc1-c1cc2cnc(Nc3ccc(C4CCN(C)CC4)cc3)nc2n(C)c1=O`: the IC50 in experiment [1] is no less than 5000 nM; in experiment [2] it was 50 to 500 nM; in experiment [3], 50 to 500 nM; in experiment [4], 500 to 5000 nM.

With `Cc1nc(-c2ccc(Cl)c(-c3cc4cnc(Nc5ccc(C6CCN(C)CC6)cc5)nc4n(C)c3=O)c2)no1`, the IC50 in experiment [1] is no less than 5000 nM; in experiment [2], 50 to 500 nM; in experiment [3], 500 to 5000 nM; in experiment [4], 500 to 5000 nM.

Turning to `CN1CCC(c2ccc(Nc3ncc4cc(-c5cc(-c6ccncc6)ccc5Cl)c(=O)n(C)c4n3)cc2)CC1`, the IC50 in experiment [1] is no less than 5000 nM; in experiment [2] it was greater than 5000 nM; in experiment [3], 500 to 5000 nM; in experiment [4], greater than 5000 nM.

Turning to `CC(=O)N(C)c1ncccc1-c1ccc(Cl)c(-c2cc3cnc(Nc4ccc(C5CCN(C)CC5)cc4)nc3n(C)c2=O)c1`, the IC50 in experiment [1] is no less than 5000 nM; in experiment [2], 500 to 5000 nM; in experiment [3], greater than 5000 nM; in experiment [4], greater than 5000 nM.

For `CN1CCC(c2ccc(Nc3ncc4cc(-c5cc(-c6ccccn6)ccc5Cl)c(=O)n(C)c4n3)cc2)CC1`, the IC50 in experiment [1] was no less than 5000 nM; in experiment [2], 50 to 500 nM; in experiment [3] it was 50 to 500 nM; in experiment [4], 500 to 5000 nM.

Consider `Cc1cnc(-c2ccc(Cl)c(-c3cc4cnc(Nc5ccc(C6CCN(C)CC6)cc5)nc4n(C)c3=O)c2)s1`, for which the IC50 in experiment [1] is no less than 5000 nM; in experiment [2], 50 to 500 nM; in experiment [3], 50 to 500 nM; in experiment [4] it was greater than 5000 nM.

Consider `CN1CCC(c2ccc(Nc3ncc4cc(-c5cc(-c6nccc(N(C)C)n6)ccc5Cl)c(=O)n(C)c4n3)cc2)CC1`, for which the IC50 in experiment [1] was 500 to 5000 nM; in experiment [2], 50 to 500 nM; in experiment [3], 500 to 5000 nM; in experiment [4], greater than 5000 nM.

With `CC(=O)N(C)c1cc(-c2cc3cnc(Nc4ccc(CCN(C)C)cc4)nc3n(C)c2=O)c(Cl)cc1-c1cccnc1`, the IC50 is no less than 5000 nM in experiment [1], 50 to 500 nM in experiment [2], 50 to 500 nM in experiment [3] and 50 to 500 nM in experiment [4].
